Calls of active or inactive are those of the source. The calls are words filed in the database; no cut-off is given here.
Tests used:
Micrococcus lylae [1] = test: Antibacterial activity against Micrococcus lylae at 6.25 to 200 ug/ml after 24 hrs by microwell dilution method; assay type: functional, organism-based
Pseudomonas aeruginosa [2] = test: Antibacterial activity against Pseudomonas aeruginosa at 6.25 to 200 ug/ml after 24 hrs by microwell dilution method; assay type: functional, organism-based
Proteus vulgaris [3] = test: Antibacterial activity against Proteus vulgaris at 6.25 to 200 ug/ml after 24 hrs by microwell dilution method; assay type: functional, organism-based
Escherichia coli [4] = test: Antibacterial activity against Escherichia coli at 6.25 to 200 ug/ml after 24 hrs by microwell dilution method; assay type: functional, organism-based
Staphylococcus cohnii [5] = test: Antibacterial activity against Staphylococcus cohnii at 6.25 to 200 ug/ml after 24 hrs by microwell dilution assay; assay type: functional, organism-based
Staphylococcus aureus [6] = test: Antibacterial activity against Staphylococcus aureus at 6.25 to 200 ug/ml after 24 hrs by microwell dilution assay; assay type: functional, organism-based
Micrococcus luteus [7] = test: Antibacterial activity against Micrococcus luteus at 6.25 to 200 ug/ml after 24 hrs by microwell dilution method; assay type: functional, organism-based
Aspergillus = test: Antifungal activity against Aspergillus at 10 mg/ml after 72 hrs by disc diffusion method; assay type: functional, organism-based
Pichia membranifaciens = test: Antifungal activity against Pichia membranifaciens at 10 mg/ml after 48 hrs by disc diffusion method; assay type: functional, organism-based
Kluyveromyces marxianus = test: Antifungal activity against Kluyveromyces marxianus at 10 mg/ml after 48 hrs by disc diffusion method; assay type: functional, organism-based
[8] = system: Schwanniomyces occidentalis; test: Antifungal activity against Schwanniomyces occidentalis at 10 mg/ml after 48 hrs by disc diffusion method; assay type: functional, organism-based
Nakaseomyces glabratus = test: Antifungal activity against Candida glabrata at 10 mg/ml after 48 hrs by disc diffusion method; assay type: functional, organism-based
Candida parapsilosis = test: Antifungal activity against Candida parapsilosis at 10 mg/ml after 48 hrs by disc diffusion method; assay type: functional, organism-based
Candida tropicalis = test: Antifungal activity against Candida tropicalis at 10 mg/ml after 48 hrs by disc diffusion method; assay type: functional, organism-based
Candida albicans = test: Antifungal activity against Candida albicans at 10 mg/ml after 48 hrs by disc diffusion method; assay type: functional, organism-based
Photorhabdus luminescens [9] = test: Antibacterial activity against Photorhabdus luminescens at 10 mg/ml after 24 hrs by disc diffusion method; assay type: functional, organism-based
MDA-MB-468 = test: Cytotoxicity against human MDA-MB-468 assessed as cell growth at 10 uM after 48 hrs by SRB assay; assay type: functional; conditions: MDA-MB-468, 48 h, read-out: Activity
T47D = test: Cytotoxicity against human T47D assessed as cell growth at 10 uM after 48 hrs by SRB assay; assay type: functional; conditions: read-out: Activity
Klebsiella aerogenes [10] = test: Antibacterial activity against Enterobacter aerogenes at 6.25 to 200 ug/ml after 24 hrs by microwell dilution method; assay type: functional, organism-based
Photorhabdus luminescens [11] = test: Antibacterial activity against Photorhabdus luminescens at 6.25 to 200 ug/ml after 24 hrs by microwell dilution method; assay type: functional, organism-based
[12] = system: Acinetobacter radioresistens; test: Antibacterial activity against Acinetobacter radioresistens at 6.25 to 200 ug/ml after 24 hrs by microwell dilution method; assay type: functional, organism-based
Salmonella paratyphi [13] = test: Antibacterial activity against Salmonella paratyphi at 6.25 to 200 ug/ml after 24 hrs by microwell dilution method; assay type: functional, organism-based; conditions: Salmonella enterica subsp. enterica serovar Paratyphi A
Klebsiella aerogenes [14] = test: Antibacterial activity against Enterobacter aerogenes at 10 mg/ml after 24 hrs by disc diffusion method; assay type: functional, organism-based
[15] = system: Acinetobacter radioresistens; test: Antibacterial activity against Acinetobacter radioresistens at 10 mg/ml after 24 hrs by disc diffusion method; assay type: functional, organism-based
Salmonella paratyphi [16] = test: Antibacterial activity against Salmonella paratyphi at 10 mg/ml after 24 hrs by disc diffusion method; assay type: functional, organism-based; conditions: Salmonella enterica subsp. enterica serovar Paratyphi A
Micrococcus lylae [17] = test: Antibacterial activity against Micrococcus lylae at 10 mg/ml after 24 hrs by disc diffusion method; assay type: functional, organism-based
Pseudomonas aeruginosa [18] = test: Antibacterial activity against Pseudomonas aeruginosa at 10 mg/ml after 24 hrs by disc diffusion method; assay type: functional, organism-based
Escherichia coli [19] = test: Antibacterial activity against Escherichia coli at 10 mg/ml after 24 hrs by disc diffusion method; assay type: functional, organism-based
Proteus vulgaris [20] = test: Antibacterial activity against Proteus vulgaris at 10 mg/ml after 24 hrs by disc diffusion method; assay type: functional, organism-based
Micrococcus luteus [21] = test: Antibacterial activity against Micrococcus luteus at 10 mg/ml after 24 hrs by disc diffusion method; assay type: functional, organism-based
Staphylococcus aureus [22] = test: Antibacterial activity against Staphylococcus aureus at 10 mg/ml after 24 hrs by disc diffusion method; assay type: functional
Staphylococcus cohnii [23] = test: Antibacterial activity against Staphylococcus cohnii at 10 mg/ml after 24 hrs by disc diffusion method; assay type: functional
Hepacivirus hominis = test: Inhibition of HCV N-terminal His-tagged NS5B RNA dependent RNA polymerase expressed in Escherichia coli DH5alpha using poly rA/U12 as primer at 200 uM after 60 mins by liquid scintillation counting
SR = test: Cytotoxicity against human SR assessed as cell growth at 10 uM after 48 hrs by SRB assay; assay type: functional; conditions: read-out: Activity
Staphylococcus aureus [24] = test: Antibacterial activity against Staphylococcus aureus at 200 ug/disc after 24 hrs by disc diffusion method; assay type: functional, organism-based
Staphylococcus cohnii [25] = test: Antibacterial activity against Staphylococcus cohnii at 200 ug/disc after 24 hrs by disc diffusion method; assay type: functional, organism-based
PC-3 = test: Cytotoxicity against human PC3 assessed as cell growth at 10 uM after 48 hrs by SRB assay; assay type: functional; conditions: PC-3, 48 h, read-out: Activity
CAKI-1 = test: Cytotoxicity against human Caki1 assessed as cell growth at 10 uM after 48 hrs by SRB assay; assay type: functional; conditions: CAKI-1, 48 h, read-out: Activity
Staphylococcus aureus [26] = test: Antibacterial activity against Staphylococcus aureus at 100 to 200 ug/ml after 24 hrs by microwell dilution assay; assay type: functional, organism-based
Staphylococcus cohnii [27] = test: Antibacterial activity against Staphylococcus cohnii at 100 to 200 ug/ml after 24 hrs by microwell dilution assay; assay type: functional, organism-based
Micrococcus luteus [28] = test: Antibacterial activity against Micrococcus luteus at 100 to 200 ug/ml after 24 hrs by microwell dilution assay; assay type: functional, organism-based

For `CCN1C(=O)CS/C1=N\NC(=O)C(C)c1ccc(-c2ccccc2)c(F)c1` (stereo not given), the Activity (Micrococcus lylae [1]) was “inactive”, the Activity (Pseudomonas aeruginosa [2]) was “inactive” and the Activity (Proteus vulgaris [3]) was “inactive”. For the same molecule, the Activity (Escherichia coli [4]) was “inactive”, the Activity (Staphylococcus cohnii [5]) was “inactive” and the Activity (Staphylococcus aureus [6]) was “inactive”. The Activity (Micrococcus luteus [7]) was “inactive”, the Activity (Aspergillus) was “inactive” and the Activity (Pichia membranifaciens) was “inactive”. For the same molecule, the Activity (Kluyveromyces marxianus) was “inactive”, the Activity [8] was “inactive” and the Activity (Nakaseomyces glabratus) was “inactive”. For the same molecule, the Activity (Candida parapsilosis) was “inactive”, the Activity (Candida tropicalis) was “inactive” and the Activity (Candida albicans) was “inactive”. For the same molecule, the Activity (Photorhabdus luminescens [9]) was “inactive”, the growth at 10 µM (MDA-MB-468) was 43.6% and the growth at 10 µM (T47D) was 55.2%. The Activity (Klebsiella aerogenes [10]) was “inactive”, the Activity (Photorhabdus luminescens [11]) was “inactive” and the Activity [12] was “inactive”. The Activity (Salmonella paratyphi [13]) was “inactive”, the Activity (Klebsiella aerogenes [14]) was “inactive” and the Activity [15] was “inactive”. The Activity (Salmonella paratyphi [16]) was “inactive”, the Activity (Micrococcus lylae [17]) was “inactive” and the Activity (Pseudomonas aeruginosa [18]) was “inactive”. For the same molecule, the Activity (Escherichia coli [19]) was “inactive”, the Activity (Proteus vulgaris [20]) was “inactive” and the Activity (Micrococcus luteus [21]) was “inactive”. For the same molecule, the Activity (Staphylococcus aureus [22]) was “inactive”, the Activity (Staphylococcus cohnii [23]) was “inactive” and the inhibition (Hepacivirus hominis) was 8%.

With `COc1ccc(/C=N/NC(=O)C(C)c2ccc(-c3ccccc3)c(F)c2)cc1` (stereo not given) the Activity (Micrococcus lylae [1]) was “inactive”, the Activity (Pseudomonas aeruginosa [2]) was “inactive” and the Activity (Proteus vulgaris [3]) was “inactive”. For the same molecule, the Activity (Escherichia coli [4]) was “inactive”, the Activity (Staphylococcus cohnii [5]) was “inactive” and the Activity (Staphylococcus aureus [6]) was “inactive”. The Activity (Micrococcus luteus [7]) was “inactive”, the Activity (Aspergillus) was “inactive” and the Activity (Pichia membranifaciens) was “inactive”. The Activity (Kluyveromyces marxianus) was “inactive”, the Activity [8] was “inactive” and the Activity (Nakaseomyces glabratus) was “inactive”. The Activity (Candida parapsilosis) was “inactive”, the Activity (Candida tropicalis) was “inactive” and the Activity (Candida albicans) was “inactive”. For the same molecule, the Activity (Photorhabdus luminescens [9]) was “inactive”, the growth at 10 µM (T47D) was 57.4% and the Activity (Klebsiella aerogenes [10]) was “inactive”. The Activity (Photorhabdus luminescens [11]) was “inactive”, the Activity [12] was “inactive” and the Activity (Salmonella paratyphi [13]) was “inactive”. The growth at 10 µM (SR) was 46%, the Activity (Klebsiella aerogenes [14]) was “inactive” and the Activity [15] was “inactive”. The Activity (Salmonella paratyphi [16]) was “inactive”, the Activity (Micrococcus lylae [17]) was “inactive” and the Activity (Pseudomonas aeruginosa [18]) was “inactive”. The Activity (Escherichia coli [19]) was “inactive”, the Activity (Proteus vulgaris [20]) was “inactive” and the Activity (Micrococcus luteus [21]) was “inactive”. The Activity (Staphylococcus aureus [22]) was “inactive”, the Activity (Staphylococcus cohnii [23]) was “inactive” and the inhibition (Hepacivirus hominis) was 8%.

`CC1(C)S[C@@H]2[C@H](NC(=O)[C@H](N)c3ccccc3)C(=O)N2[C@H]1C(=O)O` was tested, and the Activity (Staphylococcus aureus [24]) was “inactive” and the Activity (Staphylococcus cohnii [25]) was “inactive”.

`CC(C(=O)NN1C(=O)CSC1c1ccc(Cl)cc1)c1ccc(-c2ccccc2)c(F)c1` (stereo not given) was tested, and the growth at 10 µM (T47D) was 50.9%, the growth at 10 µM (PC-3) was 49.2% and the growth at 10 µM (CAKI-1) was 29.6%. For the same molecule, the Activity (Staphylococcus aureus [26]) was “Active”, the Activity (Staphylococcus cohnii [27]) was “Active” and the Activity (Micrococcus luteus [28]) was “Active”. For the same molecule, the inhibition (Hepacivirus hominis) was 8%.

— ChEMBL document CHEMBL3046898, “Synthesis and characterization of flurbiprofen hydrazide derivatives as potential anti-HCV, anticancer and antimicrobial agents” (2013)
